Tests used:
Assay type in all cases: ADME
[1] = molecular target: T1, UDP-glucuronosyltransferase 1A4 (Homo sapiens, UniProt P22310); test: Activity of human recombinant UGT1A4 expressed in insect cells assessed as enzyme mediated glucuronidation at 500 uM by LC-MS/MS method
T1 sequence (P22310 whole entry): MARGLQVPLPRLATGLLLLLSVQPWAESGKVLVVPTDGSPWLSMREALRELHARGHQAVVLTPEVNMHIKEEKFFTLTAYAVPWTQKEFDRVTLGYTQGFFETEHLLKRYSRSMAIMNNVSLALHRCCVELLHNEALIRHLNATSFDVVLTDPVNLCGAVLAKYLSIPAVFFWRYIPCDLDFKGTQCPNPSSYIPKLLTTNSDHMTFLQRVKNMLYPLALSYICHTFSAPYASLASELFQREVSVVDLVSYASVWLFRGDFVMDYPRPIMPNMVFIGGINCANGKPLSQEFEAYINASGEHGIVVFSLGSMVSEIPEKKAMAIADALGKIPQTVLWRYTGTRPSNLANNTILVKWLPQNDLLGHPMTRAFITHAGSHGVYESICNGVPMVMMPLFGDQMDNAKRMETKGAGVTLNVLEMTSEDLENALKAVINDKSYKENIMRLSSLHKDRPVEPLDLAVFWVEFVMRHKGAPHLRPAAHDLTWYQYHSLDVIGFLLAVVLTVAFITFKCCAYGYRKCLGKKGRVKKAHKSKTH

[2] = molecular target: T2, UDP-glucuronosyltransferase 2B7 (Homo sapiens, UniProt P16662); test: Activity of human recombinant UGT2B7 expressed in insect cells assessed as enzyme mediated glucuronidation in presence of […] naloxone by LC-MS/MS method
T2 sequence (P16662 whole entry): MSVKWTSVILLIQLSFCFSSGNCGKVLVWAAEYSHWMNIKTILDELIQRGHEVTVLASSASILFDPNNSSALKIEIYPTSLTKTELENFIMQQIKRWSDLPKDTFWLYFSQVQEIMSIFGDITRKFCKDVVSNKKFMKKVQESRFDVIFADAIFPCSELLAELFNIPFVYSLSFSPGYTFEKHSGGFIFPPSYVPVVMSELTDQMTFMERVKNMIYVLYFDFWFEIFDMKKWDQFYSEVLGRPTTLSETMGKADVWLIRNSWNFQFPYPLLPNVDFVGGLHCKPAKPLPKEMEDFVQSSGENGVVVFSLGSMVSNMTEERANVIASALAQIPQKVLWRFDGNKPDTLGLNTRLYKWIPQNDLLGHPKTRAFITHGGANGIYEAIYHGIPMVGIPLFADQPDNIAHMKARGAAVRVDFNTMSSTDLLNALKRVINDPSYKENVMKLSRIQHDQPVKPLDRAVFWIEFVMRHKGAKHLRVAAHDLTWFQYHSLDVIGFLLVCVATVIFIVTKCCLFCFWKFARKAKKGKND

[3] = molecular target: T3, UDP-glucuronosyltransferase 1A3 (Homo sapiens, UniProt P35503); test: Activity of human recombinant UGT1A3 expressed in insect cells assessed as enzyme mediated glucuronidation at 500 uM by LC-MS/MS method
T3 sequence (P35503 whole entry): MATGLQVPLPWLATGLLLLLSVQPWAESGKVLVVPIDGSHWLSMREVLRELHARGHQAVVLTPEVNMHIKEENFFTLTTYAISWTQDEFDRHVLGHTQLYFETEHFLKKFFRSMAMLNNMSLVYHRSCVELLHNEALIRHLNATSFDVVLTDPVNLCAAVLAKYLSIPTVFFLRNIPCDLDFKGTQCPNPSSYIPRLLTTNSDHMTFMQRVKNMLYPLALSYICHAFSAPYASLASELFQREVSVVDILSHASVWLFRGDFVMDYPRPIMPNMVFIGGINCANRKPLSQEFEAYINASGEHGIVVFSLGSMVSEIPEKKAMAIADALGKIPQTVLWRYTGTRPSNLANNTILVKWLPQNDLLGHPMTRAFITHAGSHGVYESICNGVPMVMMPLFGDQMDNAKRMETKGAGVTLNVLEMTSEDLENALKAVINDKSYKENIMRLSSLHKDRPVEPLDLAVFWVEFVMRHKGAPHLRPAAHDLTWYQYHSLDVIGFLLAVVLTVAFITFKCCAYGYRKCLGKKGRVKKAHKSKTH

[4] = molecular target: T4, UDP-glucuronosyltransferase 1A10 (Homo sapiens, UniProt Q9HAW8); test: Activity of human recombinant UGT1A10 expressed in insect cells assessed as enzyme mediated glucuronidation at 500 uM by LC-MS/MS method
T4 sequence (Q9HAW8 whole entry): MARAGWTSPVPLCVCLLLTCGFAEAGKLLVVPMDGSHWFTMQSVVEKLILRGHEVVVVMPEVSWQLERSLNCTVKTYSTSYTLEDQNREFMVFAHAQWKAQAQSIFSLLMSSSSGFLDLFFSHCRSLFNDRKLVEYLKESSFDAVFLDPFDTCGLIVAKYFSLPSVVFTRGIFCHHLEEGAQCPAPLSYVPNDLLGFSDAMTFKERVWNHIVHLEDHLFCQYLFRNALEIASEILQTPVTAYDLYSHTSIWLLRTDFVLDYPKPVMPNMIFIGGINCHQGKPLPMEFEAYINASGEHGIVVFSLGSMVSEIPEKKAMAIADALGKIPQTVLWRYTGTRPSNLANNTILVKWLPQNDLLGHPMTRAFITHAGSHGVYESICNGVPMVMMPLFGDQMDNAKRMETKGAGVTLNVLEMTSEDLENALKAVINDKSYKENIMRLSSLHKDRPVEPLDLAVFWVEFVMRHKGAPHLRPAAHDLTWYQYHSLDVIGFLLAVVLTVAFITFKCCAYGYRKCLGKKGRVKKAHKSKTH

[5] = molecular target: T5, UDP-glucuronosyltransferase 2B17 (Homo sapiens, UniProt O75795); test: Activity of human recombinant UGT2B17 expressed in insect cells assessed as enzyme mediated glucuronidation at 500 uM by LC-MS/MS method
T5 sequence (O75795 whole entry): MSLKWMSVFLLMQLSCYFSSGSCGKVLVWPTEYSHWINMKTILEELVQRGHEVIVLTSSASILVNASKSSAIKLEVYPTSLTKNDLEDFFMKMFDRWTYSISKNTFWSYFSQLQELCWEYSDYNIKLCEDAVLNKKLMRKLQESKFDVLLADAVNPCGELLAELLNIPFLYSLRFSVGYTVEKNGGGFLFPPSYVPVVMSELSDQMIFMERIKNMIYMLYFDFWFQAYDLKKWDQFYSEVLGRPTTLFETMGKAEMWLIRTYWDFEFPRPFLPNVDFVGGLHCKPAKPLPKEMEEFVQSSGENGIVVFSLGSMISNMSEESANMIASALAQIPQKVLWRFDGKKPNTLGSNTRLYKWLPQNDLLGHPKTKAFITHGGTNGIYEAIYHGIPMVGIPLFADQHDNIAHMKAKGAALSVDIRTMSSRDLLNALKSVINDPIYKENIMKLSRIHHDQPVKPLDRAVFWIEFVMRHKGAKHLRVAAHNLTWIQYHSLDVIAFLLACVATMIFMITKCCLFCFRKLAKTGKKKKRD

SMILES: CC1=NN(c2ccccc2)C(=O)C1 [EDARAVONE]
- Drug metabolism [1]: metabolite_not_detected
- Drug metabolism [2]: metabolite_not_detected
- Drug metabolism [3]: metabolite_detected
- Drug metabolism [4]: metabolite_detected
- Drug metabolism [5]: metabolite_detected

From ChEMBL document CHEMBL3526061, “Glucuronidation of edaravone by human liver and kidney microsomes: biphasic kinetics and identification of UGT1A9 as the major UDP-glucuronosyltransferase isoform” (Drug Metab Dispos, 2012)
